Data taken from paper PMC9538944, “In vitro biotransformation assays using fish liver cells: Comparing rainbow trout and carp hepatocytes” (Frontiers in Toxicology, 2022).
Marks after values point to notes of the source that are not given here.

Test system: common carp hepatocytes
Assay: In vitro hepatocyte clearance assay (substrate depletion), carp
Format: in vitro ADME, Cyprinus carpio
Details: 20 °C, 2 µM MXC / 0.5 µM BaP, mean over in vitro runs
Experimental: Isolation of hepatocytes from liver of rainbow trout was performed by a two-step collagenase perfusion procedure which is well established for rainbow trout ([Nabb et al., 2006]; [Fay et al., 2015]). […] In previous studies with common carp, an in vitro digestion method was used to isolate hepatocytes ([Cowan-Ellsberry et al., 2008]; [Dyer et al., 2008]). Here, we adopted the method of [Segner et al. (1993)] who used a two-step collagenase perfusion of carp liver via the Arteria coeliaca for cell isolation. With the perfusion method, the percentage of pancreatic cells in the final cell suspension is typically <5% ([Vogt and Segner, 1997]). Cryopreservation and thawing procedures applied for hepatocytes of both species were based on the standard protocols for rainbow trout ([Fay et al., 2014a]; [Fay et al., 2014b]). The viability of the cells was determined by means of the trypan blue exclusion assay and counting of stained and non-stained cells in a hemocytometer. The carp and trout primary hepatocyte suspensions used in the present study were aliquots of the in vitro preparations used in a previous study investigating the in vitro metabolite patterns of MXC ([Bischof et al., 2016]). A detailed description of the methods and materials used for the preparation of hepatocyte suspensions including the procedures for cell isolation, cryopreservation, and thawing, as well as cell counting, diluting to the target cell concentration, and heat-inactivating can therefore be taken from [Bischof et al. (2016)] and from the cited publications.
The in vitro hepatocyte clearance experiments were performed in a substrate depletion approach according to the methods previously published by [Fay et al. (2014b)]. These methods are in accordance with the procedures provided in the OECD TG 319A on the performance of in vitro hepatocyte clearance assays. In the present study, several in vitro runs with MXC and BaP using suspensions of either freshly isolated or cryopreserved hepatocytes from common carp and rainbow trout were carried out. For the different in vitro runs non-pooled hepatocytes were used, i.e. hepatocytes from different individual fish. For each run, triplicates of live cells (3 × 1 ml at nominal 2 × 10^6 cells/mL) and heat-inactivated cells as controls were dosed with the test chemical dissolved in acetonitrile (ACN) at the targeted concentration (2 µM for MXC and 0.5 µM for BaP) and incubated for 4 h at 15 °C (trout) or 20 °C (carp). MXC and BaP reactions were run side by side in the same in vitro run using the same hepatocyte suspensions. […]
Measured values of parent chemical concentration were log10-transformed and plotted against time. […]

[1] = cryopreserved carp hepatocytes, 4 h time point excluded
[2] = freshly isolated carp hepatocytes, 4 h, nominal 2 × 10^6 cells/mL

Compound	Mean in vitro intrinsic clearance (CLin vitro, int) [1] [mL/h/10^6 cells]	Mean in vitro intrinsic clearance (CLin vitro, int) [2]
c1ccc2c(c1)cc1ccc3cccc4ccc2c1c34 [BaP, benzo[a]pyrene]	0.287	0.198^* mL/h/10^6 cells
COc1ccc(C(c2ccc(OC)cc2)C(Cl)(Cl)Cl)cc1 [MXC, methoxychlor]	0.204	0.287^* mL/h/10^6 cells
